{"source": "paper PMC11121837", "about": "“Impact of Nitric Oxide-Release Kinetics on Antifungal Activity” (Journal of Fungi, 2024)", "key": {"[1]": {"system": "C. neoformans (ATCC 208821)", "assay": "Checkerboard assay of NO donors with antifungals", "assay_type": "cell-based, Cryptococcus neoformans"}, "Candida albicans": {"system": "Candida albicans", "assay": "Susceptibility assay (MIC, broth microdilution, CLSI M27)", "assay_type": "cell-based", "details": "for MIC: 24 h; for NO dose at MIC: calculated NO dose at MIC"}, "[2]": {"system": "C. albicans (ATCC MYA-2876)", "assay": "Checkerboard assay of NO donors with antifungals", "assay_type": "cell-based, Candida albicans"}, "C. auris (MYA-5001)": {"system": "C. auris (MYA-5001)", "assay_type": "cell-based, Candida auris"}, "[3]": {"assay": "Characterization of NO release (chemiluminescence nitric oxide analyzer)", "assay_type": "physicochemical"}, "panel of fungal isolates": {"system": "panel of fungal isolates", "assay": "Susceptibility assays, summary over the panel of fungal isolates", "assay_type": "cell-based", "details": "IC50 AIR-100 / MIC"}, "Candida auris": {"system": "Candida auris", "assay": "Susceptibility assay (MIC, broth microdilution, CLSI M27)", "assay_type": "cell-based", "details": "for MIC / NO dose at MIC: Candidozyma auris; for MIC: 24 h; for NO dose at MIC: calculated NO dose at MIC"}, "[4]": {"system": "C. neoformans (ATCC208821)", "assay_type": "cell-based, Cryptococcus neoformans"}, "Cryptococcus neoformans": {"system": "Cryptococcus neoformans", "assay": "Susceptibility assay (MIC, broth microdilution, CLSI M27)", "assay_type": "cell-based", "details": "for MIC / NO dose at MIC: Cryptococcus neoformans; for MIC: 72 h; for NO dose at MIC: calculated NO dose at MIC"}, "C. auris (ATCC MYA-5001)": {"system": "C. auris (ATCC MYA-5001)", "assay": "Checkerboard assay of NO donors with antifungals", "assay_type": "cell-based, Candida auris"}, "[5]": {"system": "Aspergillus fumigatus spores", "assay": "Susceptibility assay for sporulating fungi (MIC, EUCAST E.Def.9.4)", "assay_type": "cell-based"}, "[6]": {"system": "MatTek EpiAirway tissue (AIR-100)", "assay": "cells", "assay_type": "cell-based", "details": "Homo sapiens, 24 h, read-out: IC50 (concentration needed to inhibit tissue viability by 50%)"}, "[7]": {"details": "NO donor combined with 5-fluorocytosine"}, "[8]": {"details": "NO donor combined with amphotericin B"}, "[9]": {"details": "NO donor combined with butenafine"}, "[10]": {"details": "NO donor combined with caspofungin"}, "[11]": {"details": "NO donor combined with fluconazole"}, "[12]": {"details": "NO donor combined with miconazole"}, "[13]": {"details": "ATCC14053, Candida albicans ATCC 14053"}, "[14]": {"details": "ATCC18804, Candida albicans ATCC 18804"}, "[15]": {"details": "phosphate-buffered saline 10 mM, pH 7.4, 37 °C"}, "[16]": {"details": "Cryptococcus neoformans ATCC MYA-4566"}, "[17]": {"details": "Cryptococcus neoformans ATCC MYA-4567"}}}
{"smiles": "NCCCN(CCCN)/[N+]([O-])=N/O", "note": "[DPTA/NO, bis(3-aminopropyl) amine/NO]", "values": [{"measurement": "checkerboard classification", "setting": "[1]; [7]", "result": "I (indifferent (I))"}, {"measurement": "∑FIC", "setting": "[1]; [7]", "result": "≥ 1"}, {"measurement": "checkerboard classification", "setting": "[1]; [8]", "result": "I (indifferent (I))"}, {"measurement": "∑FIC", "setting": "[1]; [8]", "result": "≥ 1"}, {"measurement": "checkerboard classification", "setting": "[1]; [9]", "result": "I (indifferent (I))"}, {"measurement": "∑FIC", "setting": "[1]; [9]", "result": "≥ 1"}, {"measurement": "checkerboard classification", "setting": "[1]; [10]", "result": "I (indifferent (I))"}, {"measurement": "∑FIC", "setting": "[1]; [10]", "result": "≥ 1"}, {"measurement": "checkerboard classification", "setting": "[1]; [11]", "result": "I (indifferent (I))"}, {"measurement": "∑FIC", "setting": "[1]; [11]", "result": "≥ 1"}, {"measurement": "checkerboard classification", "setting": "[1]; [12]", "result": "S (Synergistic (S))"}, {"measurement": "∑FIC", "setting": "[1]; [12]", "result": 0.375}, {"measurement": "MIC", "setting": "Candida albicans; [13]", "result": 625, "unit": "µg/mL"}, {"measurement": "NO dose at MIC", "setting": "Candida albicans; [13]", "result": 131, "unit": "µg/mL"}, {"measurement": "MIC", "setting": "Candida albicans; [14]", "result": 625, "unit": "µg/mL"}, {"measurement": "NO dose at MIC", "setting": "Candida albicans; [14]", "result": 131, "unit": "µg/mL"}, {"measurement": "Selectivity Index (IC50 AIR-100 / MIC)", "setting": "Candida albicans; C. albicans ATCC 14053", "result": 28}, {"measurement": "Selectivity Index (IC50 AIR-100 / MIC)", "setting": "Candida albicans; C. albicans ATCC 18804", "result": 28}, {"measurement": "Selectivity Index (IC50 AIR-100 / MIC)", "setting": "Candida albicans; C. albicans ATCC MYA-2876", "result": 35}, {"measurement": "MIC", "setting": "Candida albicans; Candida albicans ATCC MYA-2876", "result": 500, "unit": "µg/mL"}, {"measurement": "NO dose at MIC", "setting": "Candida albicans; Candida albicans ATCC MYA-2876", "result": 105, "unit": "µg/mL"}, {"measurement": "checkerboard classification", "setting": "[2]; [7]", "result": "I (indifferent (I))"}, {"measurement": "∑FIC", "setting": "[2]; [7]", "result": "≥ 1"}, {"measurement": "checkerboard classification", "setting": "[2]; [8]", "result": "I (indifferent (I))"}, {"measurement": "∑FIC", "setting": "[2]; [8]", "result": "≥ 1"}, {"measurement": "checkerboard classification", "setting": "[2]; [9]", "result": "I (indifferent (I))"}, {"measurement": "∑FIC", "setting": "[2]; [9]", "result": "≥ 1"}, {"measurement": "checkerboard classification", "setting": "[2]; [10]", "result": "I (indifferent (I))"}, {"measurement": "∑FIC", "setting": "[2]; [10]", "result": "≥ 1"}, {"measurement": "checkerboard classification", "setting": "[2]; [11]", "result": "I (indifferent (I))"}, {"measurement": "∑FIC", "setting": "[2]; [11]", "result": "≥ 1"}, {"measurement": "checkerboard classification", "setting": "[2]; [12]", "result": "I (indifferent (I))"}, {"measurement": "∑FIC", "setting": "[2]; [12]", "result": "≥ 1"}, {"measurement": "change in MIC or MFCs after serial passaging", "setting": "C. auris (MYA-5001)", "result": "no changes"}, {"measurement": "[NO]t, total NO released over full duration", "setting": "[3]; pH 7.4", "result": "7.0 ± 1.1", "unit": "µmol/mg"}, {"measurement": "[NO]max, maximum instantaneous NO concentration", "setting": "[3]; [15]", "result": "2867 ± 211", "unit": "ppb mg^−1"}, {"measurement": "td, duration of NO release", "setting": "[3]; [15]", "result": "31.0 ± 3.3", "unit": "h"}, {"measurement": "selectivity indices, all strains", "setting": "panel of fungal isolates", "result": "below 100"}, {"measurement": "Selectivity Index (IC50 AIR-100 / MIC)", "setting": "Candida auris; C. auris ATCC MYA-5000", "result": 28}, {"measurement": "Selectivity Index (IC50 AIR-100 / MIC)", "setting": "Candida auris; C. auris ATCC MYA-5001", "result": 35}, {"measurement": "Selectivity Index (IC50 AIR-100 / MIC)", "setting": "Candida auris; C. auris ATCC MYA-5003", "result": 57}, {"measurement": "MIC", "setting": "Candida auris; Candida auris ATCC MYA-5000", "result": 625, "unit": "µg/mL"}, {"measurement": "MIC", "setting": "Candida auris; Candida auris ATCC MYA-5001", "result": 500, "unit": "µg/mL"}, {"measurement": "MIC", "setting": "Candida auris; Candida auris ATCC MYA-5003", "result": 310, "unit": "µg/mL"}, {"measurement": "NO dose at MIC", "setting": "Candida auris; Candida auris ATCC MYA-5000", "result": 131, "unit": "µg/mL"}, {"measurement": "NO dose at MIC", "setting": "Candida auris; Candida auris ATCC MYA-5001", "result": 105, "unit": "µg/mL"}, {"measurement": "NO dose at MIC", "setting": "Candida auris; Candida auris ATCC MYA-5003", "result": 65.3, "unit": "µg/mL"}, {"measurement": "outcome of passaging at sub-MIC dose", "setting": "[4]", "result": "yeast death after the second passage"}, {"measurement": "Selectivity Index (IC50 AIR-100 / MIC)", "setting": "Cryptococcus neoformans; C. neoformans ATCC 208821", "result": 18}, {"measurement": "Selectivity Index (IC50 AIR-100 / MIC)", "setting": "Cryptococcus neoformans; C. neoformans ATCC MYA-4566", "result": 28}, {"measurement": "Selectivity Index (IC50 AIR-100 / MIC)", "setting": "Cryptococcus neoformans; C. neoformans ATCC MYA-4567", "result": 28}, {"measurement": "MIC", "setting": "Cryptococcus neoformans; [16]", "result": 625, "unit": "µg/mL"}, {"measurement": "MIC", "setting": "Cryptococcus neoformans; [17]", "result": 625, "unit": "µg/mL"}, {"measurement": "MIC", "setting": "Cryptococcus neoformans; ATCC208821, 72 h, Cryptococcus neoformans ATCC 208821", "result": 1000, "unit": "µg/mL"}, {"measurement": "NO dose at MIC", "setting": "Cryptococcus neoformans; ATCC208821, Cryptococcus neoformans ATCC 208821", "result": 210, "unit": "µg/mL"}, {"measurement": "NO dose at MIC", "setting": "Cryptococcus neoformans; [16]", "result": 131, "unit": "µg/mL"}, {"measurement": "NO dose at MIC", "setting": "Cryptococcus neoformans; [17]", "result": 131, "unit": "µg/mL"}, {"measurement": "checkerboard classification", "setting": "C. auris (ATCC MYA-5001); [7]", "result": "I (indifferent (I))"}, {"measurement": "∑FIC", "setting": "C. auris (ATCC MYA-5001); [7]", "result": "≥ 1"}, {"measurement": "checkerboard classification", "setting": "C. auris (ATCC MYA-5001); [8]", "result": "I (indifferent (I))"}, {"measurement": "∑FIC", "setting": "C. auris (ATCC MYA-5001); [8]", "result": "≥ 1"}, {"measurement": "checkerboard classification", "setting": "C. auris (ATCC MYA-5001); [9]", "result": "I (indifferent (I))"}, {"measurement": "∑FIC", "setting": "C. auris (ATCC MYA-5001); [9]", "result": "≥ 1"}, {"measurement": "checkerboard classification", "setting": "C. auris (ATCC MYA-5001); [10]", "result": "I (indifferent (I))"}, {"measurement": "∑FIC", "setting": "C. auris (ATCC MYA-5001); [10]", "result": "≥ 1"}, {"measurement": "checkerboard classification", "setting": "C. auris (ATCC MYA-5001); [11]", "result": "I (indifferent (I))"}, {"measurement": "∑FIC", "setting": "C. auris (ATCC MYA-5001); [11]", "result": "≥ 1"}, {"measurement": "checkerboard classification", "setting": "C. auris (ATCC MYA-5001); [12]", "result": "A (additive (A))"}, {"measurement": "∑FIC", "setting": "C. auris (ATCC MYA-5001); [12]", "result": 0.625}, {"measurement": "Selectivity Index (IC50 AIR-100 / MIC)", "setting": "[5]; A. fumigatus ATCC 1022", "result": 14}, {"measurement": "MIC", "setting": "[5]; ATCC1022, Aspergillus fumigatus ATCC 1022 spores", "result": 1250, "unit": "µg/mL"}, {"measurement": "NO dose at MIC", "setting": "[5]; ATCC1022, Aspergillus fumigatus ATCC 1022 spores, calculated NO dose at MIC", "result": 262, "unit": "µg/mL"}, {"measurement": "IC50", "setting": "[6]", "result": 18000, "unit": "µg/mL"}]}
